Assay results published in patent US20260055079A1, “PHTHALAZINONE COMPOUNDS AS PARP7 INHIBITORS” (AZKARRA THERAPEUTICS, INC., priority 2022, published 2026).
Read-outs that look alike come from different tables or passages of the source.

Experiments:
His-GST-PARP7 = His-GST-PARP7 (Homo sapiens (Human), UniProt Q7Z3E1); assay: PARP7 biochemical assay; conditions: read-out: PARP7 IC50
[1] = test system: HARA (human lung squamous cell carcinoma) cells; assay: Cell proliferation assay (CellTiter-Glo), HARA; format: cell-based; conditions: 6 days, CellTiter-Glo, read-out: HARA GI50
[2] = test system: NCI-H1373 (human lung adenocarcinoma) cells; assay: Cell proliferation assay (CellTiter-Glo), NCI-H1373; format: cell-based; conditions: 6 days, CellTiter-Glo, read-out: NCI-H1373 GI50

Sequence of His-GST-PARP7 (Q7Z3E1 whole entry): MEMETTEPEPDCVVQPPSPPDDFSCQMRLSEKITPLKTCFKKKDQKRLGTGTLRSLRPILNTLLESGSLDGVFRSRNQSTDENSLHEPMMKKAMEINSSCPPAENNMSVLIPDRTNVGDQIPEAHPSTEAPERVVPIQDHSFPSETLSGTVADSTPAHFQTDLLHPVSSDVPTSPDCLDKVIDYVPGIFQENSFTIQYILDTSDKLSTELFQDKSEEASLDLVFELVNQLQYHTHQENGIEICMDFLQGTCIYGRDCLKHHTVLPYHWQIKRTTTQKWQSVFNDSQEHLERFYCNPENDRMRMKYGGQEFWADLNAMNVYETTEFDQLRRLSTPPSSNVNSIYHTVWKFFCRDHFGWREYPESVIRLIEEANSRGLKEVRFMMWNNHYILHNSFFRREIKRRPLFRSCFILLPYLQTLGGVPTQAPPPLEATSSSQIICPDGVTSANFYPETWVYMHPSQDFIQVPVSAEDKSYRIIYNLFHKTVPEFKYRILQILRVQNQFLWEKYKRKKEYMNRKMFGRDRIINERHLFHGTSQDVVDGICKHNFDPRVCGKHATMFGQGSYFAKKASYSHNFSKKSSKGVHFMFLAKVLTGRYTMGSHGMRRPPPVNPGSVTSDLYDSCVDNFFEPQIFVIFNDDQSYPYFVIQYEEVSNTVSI

Compound	IC50 (His-GST-PARP7) [nM]	GI50 [1] [nM]	GI50 [2] [nM]	GI50 ([1]; Homo sapiens, 144 h) [nM]	GI50 ([2]; Homo sapiens, NCI-H1373, 144 h) [nM]
6-(4-(5-((7-Cyclobutoxy-4-oxo-3,4-dihydrophthalazin-1-yl)methyl)-2-fluorobenzoyl)-6,6-difluoro-1,4-diazepan-1-yl)nicotinonitrile [Example 125]	< 50	> 5000	100 to 1000		
CC#Cc1ccc2c(=O)[nH]nc(Cc3ccc(F)c(C(=O)N4CCN(c5cc(C(=O)NC)ccn5)CC4)c3)c2c1 [Example 56, 2-(4-(2-Fluoro-5-((4-oxo-7-(prop-1-ynyl)-3,4-dihydrophthalazin-1-yl)methyl)benzoyl)piperazin-1-yl)-N-methylisonicotinamide]	< 50			> 5000	100 to 1000
CC#Cc1ccc2c(=O)[nH]nc(Cc3ccc(F)c(C(=O)N4CC(N(C)c5cc(C#N)ccn5)C4)c3)c2c1 [Example 69]	> 2000				> 5000
CC#Cc1ccc2c(=O)[nH]nc(Cc3ccc(F)c(C(=O)N4CC(N(C)c5ccc(C#N)cn5)C4)c3)c2c1 [Example 70, 6-((1-(2-Fluoro-5-((4-oxo-7-(prop-1-yn-1-yl)-3,4-dihydrophthalazin-1-yl)methyl)benzoyl)azetidin-3-yl)(methyl)amino)nicotinonitrile 2,2,2-trifluoroacetate]	> 2000				> 5000
CC#Cc1ccc2c(=O)[nH]nc(Cc3ccc(F)c(C(=O)N4CCN(c5ccc(C#N)cn5)C(=O)C4(C)C)c3)c2c1 [Example 71, 6-(4-(2-Fluoro-5-((4-oxo-7-(prop-1-yn-1-yl)-3,4-dihydrophthalazin-1-yl)methyl)benzoyl)-3,3-dimethyl-2-oxopiperazin-1-yl)nicotinonitrile]	< 50				1000 to 5000
CC#Cc1ccc2c(=O)[nH]nc(Cc3ccc(F)c(C(=O)N4CCN(c5ccc(C#N)cn5)CC(F)(F)C4)c3)c2c1 [Example 80, 6-(6,6-Difluoro-4-(2-fluoro-5-((4-oxo-7-(prop-1-ynyl)-3,4-dihydrophthalazin-1-yl)methyl)benzoyl)-1,4-diazepan-1-yl)nicotinonitrile]	< 50			1000 to 5000	100 to 1000
CC#Cc1cc2c(Cc3ccc(F)c(C(=O)N4CCN(c5ccc(C#N)cn5)CC4)c3)n[nH]c(=O)c2cc1C [Example 83, 6-(4-(2-Fluoro-5-((6-methyl-4-oxo-7-(prop-1-yn-1-yl)-3,4-dihydrophthalazin-1-yl)methyl)benzoyl)piperazin-1-yl)nicotinonitrile]	< 50				100 to 1000
N#Cc1ccc(N2CCN(C(=O)c3cccc(Cc4n[nH]c(=O)c5c(F)cccc45)c3)CC2)nc1 [Example 88, 6-(4-(3-((5-Fluoro-4-oxo-3,4-dihydrophthalazin-1-yl)methyl)benzoyl)piperazin-1-yl)nicotinonitrile]	< 50				100 to 1000
N#Cc1ccc(N2CCN(C(=O)c3cc(Cc4n[nH]c(=O)c5cccnc45)ccc3F)CC2)nc1 [Example 92, 6-(4-(2-Fluoro-5-((5-oxo-5,6-dihydropyrido[2,3-d]pyridazin-8-yl)methyl)benzoyl)piperazin-1-yl)nicotinonitrile]	50 to 100			> 5000	> 5000
O=C(c1cc(Cc2n[nH]c(=O)c3ccc(OC4CCC4)cc23)ccc1F)N1CCCN(c2ncc(C(F)(F)F)cn2)CC1 [Example 98, 6-Cyclobutoxy-4-(4-fluoro-3-(4-(5-(trifluoromethyl)pyrimidin-2-yl)-1,4-diazepane-1-carbonyl)benzyl)phthalazin-1(2H)-one]	< 50			> 5000	100 to 1000
O=C(c1cc(Cc2n[nH]c(=O)c3ccc(OC4CCC4)cc23)ccc1F)N1CCCN(C(=O)C2CC2)CC1 [Example 101, 6-Cyclobutoxy-4-(3-(4-(cyclopropanecarbonyl)-1,4-diazepane-1-carbonyl)-4-fluorobenzyl)phthalazin-1(2H)-one]	< 50			> 5000	> 5000
O=C(c1cc(Cc2n[nH]c(=O)c3ccc(OC4CCC4)cc23)ccc1F)N1CCN(c2ncc(C(F)(F)F)cn2)CC(F)(F)C1 [Example 126, 6-Cyclobutoxy-4-(3-(6,6-difluoro-4-(5-(trifluoromethyl)pyrimidin-2-yl)-1,4-diazepane-1-carbonyl)-4-fluorobenzyl)phthalazin-1(2H)-one]	< 50			> 5000	100 to 1000
O=C(c1cc(Cc2n[nH]c(=O)c3ccc(OC4CCC4)cc23)ccc1F)N1CCN(C(=O)C2CC2)CC(F)(F)C1 [Example 127, 6-Cyclobutoxy-4-(3-(4-(cyclopropanecarbonyl)-6,6-difluoro-1,4-diazepane-1-carbonyl)-4-fluorobenzyl)phthalazin-1(2H)-one]	< 50				1000 to 5000
N#Cc1cnc(N2CCN(C(=O)c3cc(Cc4n[nH]c(=O)c5ccc(OC6CCC6)cc45)ccc3F)CC2)c(C(F)(F)F)c1 [Example 129, 6-(4-(5-((7-cyclobutoxy-4-oxo-3,4-dihydrophthalazin-1-yl)methyl)-2-fluorobenzoyl)piperazin-1-yl)-5-(trifluoromethyl)nicotinonitrile]	< 50			1000 to 5000	1000 to 5000
O=C(c1cc(Cc2n[nH]c(=O)c3ccc(OC4CCC4)cc23)ccc1F)N1CCN(c2ccc(CO)cn2)CC1 [Example 130, 6-cyclobutoxy-4-(4-fluoro-3-(4-(5-(hydroxymethyl)pyridin-2-yl)piperazine-1-carbonyl)benzyl)phthalazin-1(2H)-one]	< 50			> 5000	100 to 1000
COc1cc(C#N)cnc1N1CCN(C(=O)c2cc(Cc3n[nH]c(=O)c4ccc(OC5CCC5)cc34)ccc2F)CC1 [Example 131, 6-(4-(5-((7-cyclobutoxy-4-oxo-3,4-dihydrophthalazin-1-yl)methyl)-2-fluorobenzoyl)piperazin-1-yl)-5-methoxynicotinonitrile]	< 50			1000 to 5000	100 to 1000
N#Cc1cnc(N2CCN(C(=O)c3cc(Cc4n[nH]c(=O)c5ccc(OC6CCC6)cc45)ccc3F)CC2)cc1C(F)(F)F [Example 132, 6-(4-(5-((7-cyclobutoxy-4-oxo-3,4-dihydrophthalazin-1-yl)methyl)-2-fluorobenzoyl)piperazin-1-yl)-4-(trifluoromethyl)nicotinonitrile]				1000 to 5000	< 100
O=C(c1cc(Cc2n[nH]c(=O)c3ccc(OC4CCC4)cc23)ccc1F)N1CCN(c2ccc(O)cn2)CC1 [Example 140, 6-cyclobutoxy-4-(4-fluoro-3-(4-(5-hydroxypyridin-2-yl)piperazine-1-carbonyl)benzyl)phthalazin-1(2H)-one]	< 50				1000 to 5000
O=C(c1cc(Cc2n[nH]c(=O)c3ccc(OC4CCC4)cc23)ccc1F)N1CCn2c(nnc2C(F)(F)F)C1 [Example 145, 6-cyclobutoxy-4-(4-fluoro-3-(3-(trifluoromethyl)-5,6,7,8-tetrahydro-[1,2,4]triazolo[4,3-a]pyrazine-7-carbonyl)benzyl)phthalazin-1(2H)-one]	< 50				1000 to 5000
O=C(c1cc(Cc2n[nH]c(=O)c3ccc(OC4CCC4)cc23)ccc1F)N1CCn2c(nnc2C2CC2)C1 [Example 146, 6-cyclobutoxy-4-(3-(3-cyclopropyl-5,6,7,8-tetrahydro-[1,2,4]triazolo[4,3-a]pyrazine-7-carbonyl)-4-fluorobenzyl)phthalazin-1(2H)-one]	< 50				> 5000
O=C(c1cc(Cc2n[nH]c(=O)c3ccc(OC4CCC4)cc23)ccc1Cl)N1CCN(c2ncc(C(F)(F)F)cn2)CC1 [Example 169, 4-(4-chloro-3-(4-(5-(trifluoromethyl)pyrimidin-2-yl)piperazine-1-carbonyl)benzyl)-6-cyclobutoxyphthalazin-1(2H)-one]	< 50				< 100
COc1ccc2c(=O)[nH]nc(Cc3ccc(S(C)(=O)=O)c(C(=O)N4CCN(c5ccc(C#N)cn5)CC4)c3)c2c1 [Example 182, 6-(4-(5-((7-Methoxy-4-oxo-3,4-dihydrophthalazin-1-yl)methyl)-2-(methylsulfonyl)benzoyl)piperazin-1-yl)nicotinonitrile]	< 50				> 5000
C#CCNc1ccc2c(=O)[nH]nc(Cc3ccc(F)c(C(=O)N4CCn5c(nnc5C(F)(F)F)C4)c3)c2c1 [Example 185, 4-(4-Fluoro-3-(3-(trifluoromethyl)-5,6,7,8-tetrahydro-[1,2,4]triazolo[4,3-a]pyrazine-7-carbonyl)benzyl)-6-(prop-2-yn-1-ylamino)phthalazin-1(2H)-one]	100 to 500				> 5000
N#Cc1ccc(N2CCN(C(=O)c3cc(Oc4n[nH]c(=O)c5ccccc45)ccc3F)CC2)nc1 [Example 190, 6-(4-(2-fluoro-5-((4-oxo-3,4-dihydrophthalazin-1-yl)oxy)benzoyl)piperazin-1-yl)nicotinonitrile]	100 to 500				1000 to 5000
CC#Cc1ccc2c(=O)[nH]nc(C(C)OCCC(=O)N3CCN(c4ncc(C(F)(F)F)cn4)CC3)c2c1 (stereo not shown) [Example 192, 4-(1-(3-Oxo-3-(4-(5-(trifluoromethyl)pyrimidin-2-yl)piperazin-1-yl)propoxy)ethyl)-6-(prop-1-ynyl)phthalazin-1(2H)-one]	< 50				100 to 1000
CC#Cc1ccc2c(=O)[nH]nc(Cc3ccc(F)c(C(=O)NCc4nnc(C(F)(F)F)o4)c3)c2c1 [Example 199, 2-Fluoro-5-((4-oxo-7-(prop-1-ynyl)-3,4-dihydrophthalazin-1-yl)methyl)-N-((5-(trifluoromethyl)-1,3,4-oxadiazol-2-yl)methyl)benzamide]	> 2000				1000 to 5000
CC#Cc1ccc2c(=O)[nH]nc(Cc3ccc(F)c(C(=O)N(C)C4CN(c5ccc(C#N)cn5)C4)c3)c2c1 [Example 201, N-(1-(5-Cyanopyridin-2-yl)azetidin-3-yl)-2-fluoro-N-methyl-5-((4-oxo-7-(prop-1-yn-1-yl)-3,4-dihydrophthalazin-1-yl)methyl)benzamide]	500 to 2000				1000 to 5000
